# According to patent US20030153513A1, “Preventives or remedies for obesity or fatty liver” (priority 2000, published 2003):
# Assays:
# Format in all cases: in vivo
# C57BL/6J mice [1] = assay: Test Example 1: body weight increase, non-obesity normal mice, 12 weeks oral; conditions: non-obesity normal C57BL/6J mice, 10 mg/kg/day oral, FIG. 1-A
# Description: (§1) In the test example, each 10 of the male KKA^y/Ta Jcl mice and C57BL/6J mice aged 10 weeks were used as obesity model mice and non-obesity normal model mice, respectively. The compound of Preparation 1 was orally administered to the animals at 10 mg/kg/day for 12 weeks continuously, and the body weights of the animals were daily measured. Four hours after the final administration of the compound, the animals were sacrificed, and the levels of triglyceride in the liver tissues were determined.
# (§2) The compound of Preparation 1 had been suspended in an aqueous solution of 5% gum arabic (Nakarai Chemcial, Lot. M5E5329) to provide a 0.1% suspension for use. As a control, only a vehicle (5% aqueous gum arabic solution) was administered as well, and the triglyceride level was also determined.
# KKA^y/Ta Jcl mice [2] = assay: Test Example 1: body weight increase, obesity model mice, 12 weeks oral; conditions: 10 mg/kg/day oral, FIG. 1-B
# Description: as §1, §2
# C57BL/6J mice [3] = assay: Test Example 1: triglyceride level in liver tissue, normal mice, 12 weeks oral; conditions: oral administration for 12 weeks, 10 mg/kg/day, 4 h after final dose
# Description: as §1, §2
# KKA^y/Ta Jcl mice [4] = assay: Test Example 1: triglyceride level in liver tissue, obesity model mice, 12 weeks oral; conditions: 10 mg/kg/day
# Description: as §1, §2
# KKAy/Ta Jcl mice = assay: Test Example 2: triglyceride level in liver tissue, obesity model mice, 2 weeks
# Description: In a similar way to Test Example 1, the male KKAy/Ta Jcl mice aged 10 weeks were orally administered with the compound of Preparation 1 at 10 mg/kg/day, and fed a diet containing 3% cholestyramine (corresponding to about 4 g/kg/day) for two weeks continuously, and the level of triglyceride in the liver tissue was determined (eight animals per group). Also, the control was administered with only a vehicle (5% aqueous gum arabic solution).
structure (smiles),measurement,setting,value
"CCC(CC)CC(=O)c1c(C(=O)OC)c(-c2ccc(OC)c(OC)c2)c2c(OC)c(OC)c(OC)cc2c1O [Compound of Prep. 1, Methyl 1-(3,4-dimethoxyphenyl)-3-(3-ethylvalelyl)-4-hydroxy-6,7,8-trimethoxy-2-naphthoate]",rate of increase in body weight compared with the control,C57BL/6J mice [1],no significant difference
same,inhibition of weight gain,KKA^y/Ta Jcl mice [2],significant inhibition of weight gain
same,triglyceride (liver tissue),C57BL/6J mice [3],13.2 ± 1.2 mg/g
same,triglyceride level in the liver tissue compared to the control (in words),"KKA^y/Ta Jcl mice [4]; 12 weeks oral, as shown in Table 1",significant decrease
same,triglyceride (liver tissue),"KKA^y/Ta Jcl mice [4]; KKA^y mice, oral administration for 12 weeks, 4 h after final dose",74.7 ± 7.4 mg/g
same,triglyceride level in the liver tissue compared to the control (in words),"KKAy/Ta Jcl mice; 2 weeks, as shown in Table 2",significant decrease
same,triglyceride (liver tissue),"KKAy/Ta Jcl mice; administration for 2 weeks, Prep. 1 10 mg/kg/day oral, cholestyramine 3% in diet (about 4 g/kg/day)",49.2 ± 7.7 mg/g
